From US20220133753A1, “COMPOSITIONS AND METHODS USEFUL FOR TREATING DISEASES CHARACTERIZED BY INSUFFICIENT PANTOTHENATE KINASE ACTIVITY” (Comet Therapeutics, Inc., priority 2016, published 2022)
Entries after “also recorded” stand apart in the source; their conditions may differ.

What was measured:
Drosophila S2 cells = assay: HoPan treatment of Drosophila S2 cells in combination with CoA or 4′-phosphopantetheine; format: cell-based; details: HoPan treated S2 cells
Protocol: HoPan treatment of Drosophila S2 Cell in combination with CoA or 4′-phosphopantetheine treatment: Drosophila Schneider's S2 cells were maintained at standard conditions as explained above. Cells in the exponential phase of growth were used for all the experiments. Different indicated concentrations of CoA or 4′-phosphopantetheine (deuterium labelled PPanSH(D4) or unlabeled PPanSH) were added to S2 cells either in the presence or absence of 0.5 mM HoPan (Zhou Fang Pharm Chemical, China) for 48 h. Similarly, Drosophila S2 cells were treated with different concentrations of PPanSH(D4) at either 25° C. or 4° C. and cells were then harvested at various time points to access transport of PPanSH(D4). Stable isotope labelled PPanSH containing 4 deuterium atoms was purchased from Syncom (Groningen, The Netherlands) as a sodium salt (chemical structure is provided in FIG. 13A). As a read out cell count, intracellular total CoA and PPanSH levels (both labelled and unlabeled levels wherever appropriate) and histone acetylation levels were analyzed as explained below.
Drosophila S2 Cell Immunofluorescence Staining: For immunofluorescence Drosophila S2 cells were seeded on Poly-L-Lysine coated (Sigma-Aldrich) glass microscope slides and allowed to settle for 45 min. Cells were fixed with 3.7% formaldehyde (Sigma Aldrich) for 20 min, washed briefly with PBS+0.1% Triton-X-100 (Sigma Aldrich) and permeabilized with PBS+0.2% Triton-X-100 for 20 min. The slides were incubated in primary antibody (rabbit anti-AcLys, Cell Signaling Cat No: 9441, 1:500) to visualize histone acetylation levels in PBS+0.1% Triton-X-100 overnight and after an additional washing step in PBS+0.1% Triton-X-100 they were incubated in secondary goat anti-rabbit-Alexa488 antibody (Molecular Probes) for two hours at room temperature (RT). F-actin was detected with Rhodamin-Phalloidin (20 U/ml)(Invitrogen) and DNA by staining with DAPI (0.2 ug/ml) (Thermo Scientific). Finally the samples were mounted in 80% glycerol and analyzed using a Leica fluorescence microscope with Leica software. Adobe Photoshop and Illustrator (Adobe Systems Incorporated, San Jose, Calif., USA) were used for image assembly.

[1] = Mice CoA intravenous injection study; format: in vivo, mouse; details: i.v.
Protocol: Sample preparation for mass spectrometry and instrumental parameters: Samples were briefly washed with ice-cold PBS solution. Samples were then sonicated thoroughly in 100 μl ice-cold milliQ (MQ) water containing 50 mM Tris(2-carboxyethyl)phosphine hydrochloride. Subsequently 100 ul saturated ammonium sulfate was added to each sample and centrifuged for 20 min at 10° C., 16100 rcf to collect supernatant. To 150 μl of supernatant, 15 ul of ammonium hydroxide (12.5%) was added and 20 μl was injected for LC-MS (liquid chromatography-mass spectrometry) analysis. For mouse plasma analysis, 50 ul of MQ water containing 50 mM Tris (2-carboxyethyl)phosphine hydrochloride was added to 50 ul of plasma and processed further as mentioned above. Appropriate dilution series of standard CoA, PPanSH and PPanSH(D4) was processed similarly before analysis. […] The flow was maintained at 1 ml/min with optimized mobile phase gradient of MQ water (A), 200 mM NH4Ac in 95/5 MQ water/acetonitrile adjusted to pH 4.5 with acetic acid (B), and acetonitrile (C). The separated analytes were detected with positive mode mass spectrometry under unit resolution. […] The absolute concentration was finally calculated using linear regression analysis of respective standard compounds, except CoA(D4) which was estimated indirectly using CoA standards. […]

[2] = Conversion of CoA in human serum by HPLC; format: in vitro ADME
Source text: The conversion of CoA to 4′-phosphopantetheine was further investigated in mouse serum and in human serum.

## CC(C)(COP(=O)(O)OP(=O)(O)OC[C@H]1O[C@@H](n2cnc3c(N)ncnc32)[C@H](O)[C@@H]1OP(=O)(O)O)[C@@H](O)C(=O)NCCC(=O)NCCS [CoA, Coenzyme A]
Drosophila S2 cells; compound added to the culture medium, HPLC
  intracellular concentration of CoA: restored the intracellular concentration of CoA
Drosophila S2 cells; compound added to the medium
  rescue of HoPan-induced decrease in cell count: rescued
  rescue of HoPan-induced histone acetylation defect: rescued
Drosophila S2 cells; external supplementation, HPLC
  intracellular levels of 4′-phosphopantetheine: significantly increased
[1]; 30 minutes, HPLC
  conversion of injected CoA in plasma: rapidly converted to 4′-phosphopantetheine
[1]; 6 hrs, mass spectrometry
  4′-phosphopantetheine in plasma after CoA injection: elevated levels of PpanSH; also recorded: still present
[2]
  conversion of CoA in serum: converted to 4′-phosphopantetheine
